Series [1] in a line: Bioavailability / pharmacokinetic study in male rats (IV and PO). The class given is in vivo, rat. The conditions noted are these: plasma; for Vd: read-out: Vdss; for AUC / Cmax / Tmax: PO 5 mg/kg; for bioavailability: PO 5 mg/kg vs IV 2 mg/kg. How it is done:
Example 8 was formulated in 0.9% w/v saline pH 4 (adjusted with 1M HCl) for IV dosing. The formulation was dosed at 2 mg/kg by femoral catheter to two male rats each (170-250 g). Jugular vein catheter serial blood samples were taken at 0.033, 0.083, 0.167, 0.5, 1, 2, 4, 8, and 24 hrs post-dose. For PO dosing, Example 8 was formulated in deionized water pH 4 (adjusted with 1M HCl) and dosed at 5 mg/kg by oral gavage to two male rats each (170-250 g). Serial blood samples were taken by jugular vein catheter at 0.25, 0.5, 1, 1.5, 2, 3, 4, 8, and 24 hrs post dose. Plasma samples were generated from blood using low speed centrifugation. […] The samples and standards were extracted by precipitation with two volumes of acetonitrile followed by centrifugation. […] Where appropriate, measured and not nominal doses were used to calculate bioavalability.

Series [2] can be described thus: Interconversion of Compound B to Compound A observed by NMR. The class given is physicochemical. The source says:
Compound B (Example 19) was obtained by the intramolecular cyclization of Example 9 (Compound A) via an interconversion process. Furthermore, interconversions between Compound A (Example 9) and Compound B were observed under various conditions. For example, Compound B was converted to Compound A in the presence of water and such conversion was proportional to the concentration of water in the solvent. […] In d6-DMSO, compound B predominates, while there is a proportional increase in compound A with increase in D2O concentration. The proportion of compound A relative to compound B in 100% D2O reaches approximately 90%. Furthermore, Compound B was converted to Compound A under acidic condition.

Series [3] deals with Human Arginase 1 (Homo sapiens (Human), UniProt P05089). The series can be described thus: Human Arginase 1 enzyme inhibition (thioarginine/DTNB absorbance assay). The format is biochemical. The conditions noted are these: recombinant enzyme 5 nM, 0.5 mM thioarginine premix, 60 min. How it is done: (§1) The thiol group was detected with Ellman's reagent, 5,5′-dithiobis(2-nitrobenzoic acid) (DTNB). DTNB reacts with the thiol to give the mixed disulfide and 2-nitro-5-thiobenzoic acid (TNB) which is quantified by the absorbance of the anion (TNB^2−) at 412 nm.
Human Arginase 1, sequence (P05089 whole entry): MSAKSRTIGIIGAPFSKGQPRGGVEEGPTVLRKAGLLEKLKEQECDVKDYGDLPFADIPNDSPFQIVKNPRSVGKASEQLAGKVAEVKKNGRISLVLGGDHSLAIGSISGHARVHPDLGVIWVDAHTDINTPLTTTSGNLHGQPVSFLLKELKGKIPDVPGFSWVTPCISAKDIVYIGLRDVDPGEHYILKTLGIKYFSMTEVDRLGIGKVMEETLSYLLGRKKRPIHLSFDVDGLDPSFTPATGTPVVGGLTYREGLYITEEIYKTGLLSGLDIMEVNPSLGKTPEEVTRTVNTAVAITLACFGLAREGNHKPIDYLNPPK
(§2) The assays were run in clear 384 well plates (Greiner cat no: 781101). […] Two pre-mixes were prepared from reagents thawed immediately before addition to assay plates. Pre-mix one comprised human Arginase 1 or human Arginase 2, at a final concentration of 5 nM and 0.5 mM DTNB in assay buffer, 45 mM HEPES pH7.5, brij 35, 0.045% (w/v) and 100 μM MnCl2. Pre-mix two comprised freshly thawed 0.5 mM thioarginine in assay buffer.
(§3) Assay plates were centrifuged prior to reading absorbance at 412 nm in a Pherastar multi-mode plate reader to collect data at time point 0 (T0). The plates were incubated at room temperature for 60 min prior to reading again to collect data at time point 1 (T1). Data is derived by subtracting the A412 signal measured at T0 (time point 0) from that measured at T1 (time point 1). The data was transformed to % effect using the equation: Compound % effect=100*[(X−min)/(max−min)], where X represents the normalized value for the compound based on the Min (vehicle) and Max (reference compound) inhibition control.

Series [4] deals with Human Arginase 2 (Homo sapiens (Human), UniProt P78540). The series can be described thus: Human Arginase 2 enzyme inhibition (thioarginine/DTNB absorbance assay). The format is biochemical. The conditions noted are these: recombinant enzyme 5 nM, 0.5 mM thioarginine premix, 60 min. How it is done: as §1, §2, §3
Human Arginase 2, sequence (P78540 23-354): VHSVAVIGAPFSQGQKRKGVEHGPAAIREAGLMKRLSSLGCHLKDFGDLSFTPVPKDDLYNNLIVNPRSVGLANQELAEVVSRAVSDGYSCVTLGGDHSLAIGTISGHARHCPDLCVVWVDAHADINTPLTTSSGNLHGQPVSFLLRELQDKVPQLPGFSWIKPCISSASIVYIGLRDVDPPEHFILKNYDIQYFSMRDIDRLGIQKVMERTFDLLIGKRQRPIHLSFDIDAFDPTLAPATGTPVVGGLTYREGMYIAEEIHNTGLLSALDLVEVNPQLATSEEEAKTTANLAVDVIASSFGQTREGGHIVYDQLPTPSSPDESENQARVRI
Series [5] can be described thus: Bioavailability / pharmacokinetic study in male rats (IV and PO). The format is in vivo. The conditions noted are these: Example 7 when dosed as payload, male rat.
The mark [6] stands for this setting: pro-drug itself, observed when dosed as pro-drug, male rat, IV 2 mg/kg.
Where [7] appears, read: pro-drug itself, observed when dosed as pro-drug, male rat.

Like-named read-outs stand apart in the source and are kept apart here. Marks after values point to notes of the source that are not given here.

On to `CC(C)[C@H](N)C(=O)N[C@H]1CN[C@]2(CCCCB(O)OC2=O)C1` [Example 19, (S)-2-amino-N-((3R,5R)-8-hydroxy-6-oxo-7-oxa-1-aza-8-boraspiro[4.7]dodecan-3-v1)-3-methylbutanamide], for which, in series [1] (setting [6]), the clearance turned out to be 36.8 mL/min/kg and the Vd came out at 0.2 L/kg. Besides, in series [1] (setting [7]), the area under the curve (AUC) amounted to 0.21 µM·h, the peak level (Cmax) was 330 nM, the time to peak (Tmax) is 15 min and the bioavailability turned out to be 2.5%. Moreover, in series [2] (compound B in 0.1 M DCl in D2O), the “conversion to compound A under acidic condition” value is “almost complete conversion to compound A”. Further, the “proportion of compound A relative to compound B” value in series [2] (compound B in 100% D2O) is “approximately 90%”. Further, the IC50 in series [3] is 220 nM. Also, the IC50 in series [4] is 280 nM.

In the case of `N[C@H]1CN[C@@](CCCCB(O)O)(C(=O)O)C1` [Example 7, (2R,4R)-4-amino-2-(4-boronobutyl)pyrrolidine-2-carboxylic acid], in series [5], the “Cl (mL/min/kg)” value is recorded as 8.90 * mL/min/kg and the “Vdss (L/kg)” value is 0.26 * L/kg. Besides, in series [1] (male, rat, iv), the clearance came to 8.9 mL/min/kg and the Vd was 0.26 L/kg.

On to `CC(C)[C@H](N)C(=O)N[C@H]1CN[C@@](CCCCB(O)O)(C(=O)O)C1` [Example 9, (2R,4R)-4-((S)-2-amino-3-methylbutanamido)-2-(4-boronobutyl)pyrrolidine-2-carboxylic acid], for which, in series [1] (setting [6]), the clearance was 33.3 mL/min/kg and the Vd amounted to 0.2 L/kg. Further, in series [1] (setting [7]), the exposure (AUC) was found to be 0.24 µM·h, the peak level (Cmax) was 600 nM, the Tmax is 15 min and the bioavailability came to 3.2%. Further, the IC50 in series [3] was 320 nM. The IC50 in series [4] is 330 nM.

Values taken from patent US11420984B2, “Arginase inhibitors and methods of use thereof” (AstraZeneca AB, priority 2018, dated 2022).
